In one series the target is dopamine D2-receptors (Rattus norvegicus, UniProt P61169). Put plainly: affinity for dopamine D2-receptors by displacement experiments with [3H]-spiperone (rat striatum membranes). It counts as binding. How it is done:
1Determining the affinity for dopamine D2-receptors by displacement experiments with [^3 H]-spiperone (Modified Method of W. Billard et al., Life Sci. 35, 1885 (1984) and D. J. de Vries and P. M. Beart, Eur. J. Pharmacol. 109, 417 (1985))
Male rats (of the Chbb:Thom strain weighing about 200 g) were killed by a blow to the back of the neck. The brains were removed and dissected on ice. The striata were dissected out, weighed and homogenised in 25 volumes of tris buffer (50 mM tris-HCl, 1 mM EDTA, 5 mM MgCl2 and 1 mM ascorbic acid) for 30 seconds in an Ultra-Turrax at maximum speed, followed by 10 cycles in a Potter-Elvehjem at 1400 rpm. The pellet obtained after centrifuging at 50,000×g at 4° C. for 15 minutes was again taken up in 25 ml of tris buffer and centrifuged under the above conditions. The supernatant was discarded and the pellet obtained was incubated in 25 ml of tris buffer at 37° C. for 30 minutes and then centrifuged again at 50,000×g at 4° C. for 15 minutes. Finally, the pellet obtained was mixed with tris buffer to obtain a homogenate dilution of 1:500 (based on the weight of the striata).
1 ml aliquots of the membrane preparation were incubated with 1 ml of a solution of 0.25 nM [^3 H]-spiperone ([…], Messrs. DuPont NEN) and at increasing concentrations of the test substance (10^-11 to 10^-4 M) at ambient temperature for one hour. Incubation was ended by the addition of 5 ml of ice cold tris buffer and filtration using Whatman GF/B filters. The filters were washed twice, each time with 5 ml of ice cold buffer. The radioactivity of the filters was determined by liquid scintillation measurement in Instagel^(R) (Messrs. Canberra Packard). Non-specific binding was determined in the presence of 10^-5 M haloperidol (Sigma Chemical Co.).
Displacement curves were obtained from the data using the TOPFIT programming package (G. Heinzel in "Pharmacokinetics During Drug Development: Data Analysis and Evaluation Techniques", G. Bozler and J. M. van Rossum Eds., G. Fischer Verlag, Stuttgart 1982, 207).

The next series concerns the target T1, alpha-2 receptors (Rattus norvegicus, UniProt P22909).
T1 sequence (P22909 1-465): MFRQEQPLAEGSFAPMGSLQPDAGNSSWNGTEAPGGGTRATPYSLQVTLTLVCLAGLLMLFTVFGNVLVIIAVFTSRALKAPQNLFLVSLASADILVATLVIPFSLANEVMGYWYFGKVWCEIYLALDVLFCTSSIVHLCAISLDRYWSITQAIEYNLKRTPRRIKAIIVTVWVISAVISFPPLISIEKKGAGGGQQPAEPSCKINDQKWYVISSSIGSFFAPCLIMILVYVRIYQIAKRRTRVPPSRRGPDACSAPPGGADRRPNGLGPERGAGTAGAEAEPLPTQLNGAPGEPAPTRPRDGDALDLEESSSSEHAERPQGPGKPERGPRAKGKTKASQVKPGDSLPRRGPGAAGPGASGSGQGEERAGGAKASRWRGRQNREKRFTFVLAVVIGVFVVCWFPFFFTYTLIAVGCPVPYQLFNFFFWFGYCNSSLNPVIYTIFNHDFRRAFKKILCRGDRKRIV
Put plainly: affinity for alpha-2 receptors by displacement experiments with [3H]-clonidine (rat cortex membranes). The note with it: read-out: α2-IC50. The class given is binding.

The test system of series [1] is hypersensitive dopamine receptor. Put plainly: motility triggering in the mouse treated 24 hours earlier with reserpine. The class given is in vivo. The note with it: Mus musculus, sc; reserpine-treated mice, s.c.; read-out: DLi50 (dosage resulting in 50 running pulses every 5 minutes). Here is the method:
This test determines predominantly agonistic effects on the hypersensitive dopamine receptor.
Male mice are treated 24 hours before the experiment with 5 mg/kg i.p. reserpine. The animals are kept at 25°-30° C. and treated three times with 2 ml of a 5% glucose solution in tyrode s.c. (the first time when the reserpine is given, the second time in the evening of the pre-treatment day and the third time on the morning of the test day).
[…] (The injection volume is usually 0.1 ml/10 g of body weight). 30 minutes later the groups of animals are placed in the observation cages (measuring 42 x 24 x 8 cm) and fitted with an infrared lightbeam in order to measure their activity. The value measured is the frequency with which a group of 6 mice pass through the infra-red beam within 5 minutes ("running pulses/5 minutes"; mean at n=3; mean±s.e.m. at n=6).
3 to 6 groups are tested for each substance.

Another series relates to MPTP monkeys. Put plainly: post-synaptic dopaminergic activity in MPTP monkeys. It counts as in vivo, rhesus monkey. An excerpt: 6. Determining the post-synaptic dopaminergic activity in MPTP monkeys (Modified Method of R. S. Burns et al., Proc. Natl. Acad. Sci. 80. 4546 (1983))
The neurotoxin 1-methyl-4-phenyl-1,2,3,6- tetrahydro-pyridine (MPTP) produces in humans and monkeys an irreversible syndrome which in its clinical, pathological, biochemical and pharmacological appearance is very similar to idiopathic Parkinson's disease (Markey et al., Nature 311, 464 (1984)). The reason for this similarity is that MPTP selectively destroys those dopaminergic nerve cells in the substantia nigra of the brain which are also lost by degenerative processes in Parkinson's disease. There is even some discussion that MPTP or an MPTP-like substance might be formed in the body and trigger Parkinson's disease (S. H. Snyder, Nature 311, 514 (1984)). Possibly because of the specific MPTP metabolism, the clinical formation of the MPTP-induced Parkinson syndrome has hitherto been detected only in humans and monkeys. The MPTP model produced in the rhesus monkey is therefore exceptionally suitable for testing the activity of post-synaptically acting dopamine agonists. For this purpose, rhesus monkeys were given MPTP in overall doses of up to about 6 mg/kg of body weight, until the following symptoms appeared: The animals were akinetic and unable to take water and food.
It is clear that with the compounds according to the invention there is no sedative effect or ataxia at a dosage which is several times the MED, which can be put down to the absence of a corresponding activity mediated by the α2- receptors.

Sequence of dopamine D2-receptors (P61169 whole entry): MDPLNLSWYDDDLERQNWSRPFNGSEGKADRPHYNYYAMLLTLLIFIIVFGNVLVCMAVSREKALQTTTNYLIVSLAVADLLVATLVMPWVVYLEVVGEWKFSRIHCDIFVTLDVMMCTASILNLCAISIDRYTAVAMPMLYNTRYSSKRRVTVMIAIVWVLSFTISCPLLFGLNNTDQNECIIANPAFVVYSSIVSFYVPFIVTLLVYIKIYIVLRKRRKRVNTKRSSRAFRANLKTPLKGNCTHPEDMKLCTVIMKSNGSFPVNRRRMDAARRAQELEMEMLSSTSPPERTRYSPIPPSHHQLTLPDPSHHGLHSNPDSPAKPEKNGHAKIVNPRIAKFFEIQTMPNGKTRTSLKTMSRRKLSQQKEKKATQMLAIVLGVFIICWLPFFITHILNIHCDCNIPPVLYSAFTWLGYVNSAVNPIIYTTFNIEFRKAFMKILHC

One may read the Ki as a measure of affinity in units of concentration, obtained from inhibition or displacement. The low end stands for higher affinity, the high end for lower affinity. Broadly, the IC50 is the midpoint of a concentration-inhibition curve. Take `Nc1nc2c(s1)CCN(CC=Cc1ccccn1)CC2` [Example 11a, 2-Amino-6-(3-(2-pyridyl)allyl)-4,5,7,8-tetrahydro-6H-thiazolo[5,4-d]azepin]: the affinity on dopamine D2-receptors ([3H]-spiperone, high-affinity form of the dopamine receptor) corresponds to a Ki of 4.3 nM. Further, the “α2-IC50 / D2-Ki” value at dopamine D2-receptors (relative affinity for dopamine-D2 receptors compared with α2-adrenoceptors, the higher, the higher the D2/α2 selectivity) came out at 176. In addition, the half-inhibitory concentration (IC50) at alpha-2 receptors is 760 nM. The ED (50 running pulses/5 min) in series [1] was determined as 0.35 mg/kg. In the series on MPTP monkeys (0.05 mg/kg i.m. (MED)), the Duration of activity lay within 1.5 to 2 h and the Side effects result was “none”. Moreover, the Duration of activity with MPTP monkeys (3.00 mg/kg i.m.) was 5 h. Besides, the minimal effective dose in the series on MPTP monkeys (Primates, in Macaca mulatta, im, rhesus monkeys, i.m., read-out: minimum dose (MED) required to alleviate the Parkinson's symptoms) amounted to 0.05 mg/kg.

`Nc1nc2c(s1)CCN(CC=Cc1ccco1)CC2` [Example 8, 2-Amino-6-(3-(2-furyl)allyl)-4,5,7,8-tetrahydro-6H-thiazolo[5,4-d]azepine]: in series [1], the ED (50 running pulses/5 min) stood at 0.34 mg/kg.

Take `Nc1nc2c(s1)CCN(CC=Cc1ccsc1)CC2` [Example 4a, 2-Amino-6-(3-(3-thienyl)allyl)-4,5,7,8-tetrahydro-6H-thiazolo[5,4-d]azepin]: the ED (50 running pulses/5 min) in series [1] was 1.85 mg/kg.

For the compound `Nc1nc2c(s1)CCN(CC=Cc1cccnc1)CC2` [Example 11b, 2-Amino-6-(3-(3-pyridyl)allyl)-4,5,7,8-tetrahydro-6H-thiazolo[5,4-d]azepine], the ED (50 running pulses/5 min) in series [1] stood at 0.29 mg/kg.
